Common to all, as to conditions: ASO
Series [1] addresses BIRC2.
For series [2], the target named is INPPL1.
Series [3] addresses RHOC.
Series [4] concerns the target PTEN.

Experimental findings from the OligoGym collection are described below.

These antisense oligonucleotides have a phosphorothioate backbone; sugars and methylation of C are not fully specified.
Further: test concentration or dose not given here.

Take AAAAGCTAAGTTCACACA: in series [1], the remaining target (mRNA or protein) (fraction of control) was at least 1.

On to AAATTACACTCCATAGAA, for which the remaining target (mRNA or protein) (fraction of control) in series [1] is at least 1.

In series [1], AAGCACTTTAACATGACA displayed a remaining target (mRNA or protein) (fraction of control) of 0.85.

For AAGTAGTTTTGGTTCCTC, the remaining target (mRNA or protein) (fraction of control) in series [2] was at least 1.

Sequence AAGTCAATACCCACAAGC gave a remaining target (mRNA or protein) (fraction of control) in series [1] of at least 1.

AATCAACTCTACTAGCCT returned a remaining target (mRNA or protein) (fraction of control) in series [1] of 0.53.

Consider ACAGACCAGGAGACAGTG, for which, in series [2], the remaining target (mRNA or protein) (fraction of control) was 0.94.

In series [1], ACCTGGGAAAAGTCTTTG had a remaining target (mRNA or protein) (fraction of control) of at least 1.

ACGGTGGGATAGGAAGGT returned a remaining target (mRNA or protein) (fraction of control) in series [2] of at least 1.

The sequence ACTCAAGGTAGCCAAAGG displayed a remaining target (mRNA or protein) (fraction of control) in series [3] of 0.67.

Consider ACTCTGGGTCCCTACTGC, for which, in series [3], the remaining target (mRNA or protein) (fraction of control) came out at 0.8.

The sequence ACTTTCTTCCTAACTTTG had a remaining target (mRNA or protein) (fraction of control) in series [1] of at least 1.

In turn, AGACACTTTCCTGTGAGC gave a remaining target (mRNA or protein) (fraction of control) in series [3] of 0.31.

Consider AGACCCACACAGAACAGT, for which the remaining target (mRNA or protein) (fraction of control) in series [2] was at least 1.

AGAGCAGGGCAGCACAGA had a remaining target (mRNA or protein) (fraction of control) in series [2] of at least 1.

With AGGTGGATGCACTTCTGA, in series [1], the remaining target (mRNA or protein) (fraction of control) is at least 1.

AGGTGGGTGGGAAGGAGA came in with a remaining target (mRNA or protein) (fraction of control) in series [2] of 0.98.

For AGTGAAAAGCACCAAAGA, in series [1], the remaining target (mRNA or protein) (fraction of control) is at least 1.

On to ATAACAGACCAATTACTG, for which the remaining target (mRNA or protein) (fraction of control) in series [1] was at least 1.

For ATAATTGGTGGGTCAGCA, the remaining target (mRNA or protein) (fraction of control) in series [1] is at least 1.

In turn, ATATAGTTCACCAAACAT registered a remaining target (mRNA or protein) (fraction of control) in series [1] of at least 1.

ATGGTGACAGGCGACTCA: the remaining target (mRNA or protein) (fraction of control) in series [4] was 0.25.

In turn, ATGTTGTCACTGCTCTGG had a remaining target (mRNA or protein) (fraction of control) in series [2] of 0.92.

On to ATTACACCAGTTCGTCCC, for which the remaining target (mRNA or protein) (fraction of control) in series [4] was 0.41.

In the case of ATTCTTATCCACAAATAA, in series [1], the remaining target (mRNA or protein) (fraction of control) was at least 1.

In series [4], ATTGTTGCTGTGTTTCTT registered a remaining target (mRNA or protein) (fraction of control) of 0.36.

In the case of ATTTCTTGATCACATAGA, the remaining target (mRNA or protein) (fraction of control) in series [4] was at least 1.

In turn, CAAGATCTTCACAAAAGG gave a remaining target (mRNA or protein) (fraction of control) in series [4] of at least 1.

CAATCTGACAAGATCGTG displayed a remaining target (mRNA or protein) (fraction of control) in series [1] of at least 1.

Consider CACCCCAATAAATAGGCA, for which the remaining target (mRNA or protein) (fraction of control) in series [2] was at least 1.

For CAGATTAATAACTGTAGC, in series [4], the remaining target (mRNA or protein) (fraction of control) is 0.91.

As to CAGGAGAAGCCGAGGAAG, the remaining target (mRNA or protein) (fraction of control) in series [4] came to 0.49.

CAGGCGGTAGTTGAGGTC: the remaining target (mRNA or protein) (fraction of control) in series [2] was at least 1.

The sequence CAGTGGTGGAGGTGGAAA came in with a remaining target (mRNA or protein) (fraction of control) in series [2] of at least 1.

Regarding CATGGCTGATACGGTTCT, the remaining target (mRNA or protein) (fraction of control) in series [2] came out at 0.98.

In series [1], CATTTCTTCAGCTTGTTT returned a remaining target (mRNA or protein) (fraction of control) of at least 1.

CCAACCTCAAATGTCCCA came in with a remaining target (mRNA or protein) (fraction of control) in series [2] of at least 1.

As to CCAAGGTGGGAGATAATG, in series [1], the remaining target (mRNA or protein) (fraction of control) was determined as 0.97.

As for CCAGATTCTGAATAAAGC, the remaining target (mRNA or protein) (fraction of control) in series [1] is at least 1.

Consider CCATAGGATTCATAGCCA, for which the remaining target (mRNA or protein) (fraction of control) in series [2] is at least 1.

For CCATAGTCCGAGGGCAGT, the remaining target (mRNA or protein) (fraction of control) in series [2] was found to be 0.88.

On to CCCCAATACAGATTCACT, for which the remaining target (mRNA or protein) (fraction of control) in series [4] was 0.48.

CCCGCGGCTGCTCACAGG gave a remaining target (mRNA or protein) (fraction of control) in series [4] of 0.19.

With CCGGGTCCCTGGATGTGC, in series [4], the remaining target (mRNA or protein) (fraction of control) worked out at 0.24.

In the case of CCTCATAACTTTTCAACC, in series [2], the remaining target (mRNA or protein) (fraction of control) is at least 1.

In series [4], CCTCCGAACGGCTGCCTC had a remaining target (mRNA or protein) (fraction of control) of 0.4.

In series [2], CCTTGTCCACCTCACTGT yielded a remaining target (mRNA or protein) (fraction of control) of 0.81.

The sequence CGAGAGGCGGACGGGACC yielded a remaining target (mRNA or protein) (fraction of control) in series [4] of at least 1.

CGCTCTCGCTGTCTCGGA returned a remaining target (mRNA or protein) (fraction of control) in series [2] of at least 1.

CGCTTGGCTCTGGACCGC: the remaining target (mRNA or protein) (fraction of control) in series [4] came out at 0.16.

CGGGCGCCTCGGAAGACC: the remaining target (mRNA or protein) (fraction of control) in series [4] was 0.38.

In turn, CGTTGGTGGCGGTTTCTC came in with a remaining target (mRNA or protein) (fraction of control) in series [2] of 0.93.

In the case of CTAGTGTTATCAGAAACG, in series [1], the remaining target (mRNA or protein) (fraction of control) is at least 1.

Consider CTCAGATTTGAAATGCTA, for which the remaining target (mRNA or protein) (fraction of control) in series [1] is at least 1.

For the sequence CTCTGGTTCTTCAAATAA, in series [2], the remaining target (mRNA or protein) (fraction of control) is at least 1.

Regarding GAATATATCTTCACCTTT, in series [4], the remaining target (mRNA or protein) (fraction of control) was determined as 0.58.

For the sequence GACAGCACCAGAGTAACC, the remaining target (mRNA or protein) (fraction of control) in series [2] stood at 0.69.

Regarding GACATCACGCCGCAACCC, in series [2], the remaining target (mRNA or protein) (fraction of control) amounted to 0.39.

Take GACCACAAGGAATAAATA: the remaining target (mRNA or protein) (fraction of control) in series [1] is at least 1.
